The record followed here is ChEMBL document CHEMBL3797073 (Bioorg Med Chem, 2016).

The structures appear in SMILES notation.

In assay [1] the target is T1, Prothrombin (Homo sapiens, UniProt P00734). The experiment in a line: Inhibition of human thrombin at 1 ug/ml preincubated for 10 mins followed by Ac-FVR-AMC substrate addition measured within 10 mins by fluorescence assay relative to control.
For assay [2], the target named is T1, Prothrombin. As to the kind of experiment: Inhibition of human thrombin preincubated for 10 mins followed by Ac-FVR-AMC substrate addition measured within 10 mins by fluorescence assay.
In a further assay the test system is Rattus norvegicus. The experiment in a line: Anticoagulant activity in Sprague-Dawley rat assessed as inhibition of arteriovenous thrombosis at 0.5 mg/ml administered 3 days prior to testing measured on day 4 relative to control. It is filed as functional.

By inhibition is commonly meant the share of the control response that was lost under treatment. High values mean strong suppression, low ones little suppression. For the molecule `CCn1c(CNc2ccc(C(=N)N)cc2F)nc2cc(C(=O)N(CCC(=O)O)c3ccc(C)c(C)c3)ccc21`, the inhibition against Prothrombin [1] stood at 91.6%. Further, the IC50 at Prothrombin [2] (read-out: IC50) amounted to 10.1 nM.

On Prothrombin [1], `CCn1c(CNc2ccc(C(=N)N)cc2F)nc2cc(C(=O)N(CCC(=O)O)c3ccc(C)c(F)c3)ccc21` came in with an inhibition of 87.5%.

`CCn1c(CNc2ccc(C(=N)N)cc2F)nc2cc(C(=O)N(CCC(=O)O)c3cccc(C)n3)ccc21` returned an inhibition against Prothrombin [1] of 93.6%. The IC50 on Prothrombin [2] (read-out: IC50) was 2.16 nM; on Prothrombin [2] (read-out: pIC50 (converted)), 2.14 nM. The “inhibition (INH)” value in the assay on Rattus norvegicus was determined as 84.66%.

On to `Cn1c(CNc2ccc(C(=N)N)cc2)nc2cc(C(=O)N(CCC(=O)O)c3ccccn3)ccc21` [DABIGATRAN], for which the “inhibition (INH)” value with Rattus norvegicus came out at 85.07%.

The molecule `CCn1c(CNc2ccc(C(=N)N)cc2F)nc2cc(C(=O)N(CCC(=O)O)c3cccc(C)c3C)ccc21` returned an inhibition on Prothrombin [1] of 93.2%. Moreover, the IC50 on Prothrombin [2] (read-out: IC50) is 4.92 nM; on Prothrombin [2] (read-out: pIC50 (converted)) it was 4.9 nM.

In turn, `CCn1c(CNc2ccc(C(=N)N)cc2F)nc2cc(C(=O)N(CCC(=O)O)c3ccc(F)c(F)c3)ccc21` returned an inhibition at Prothrombin [1] of 93.8%. Also, the IC50 is 9.17 nM on Prothrombin [2] (read-out: IC50) and 9.12 nM at Prothrombin [2] (read-out: pIC50 (converted)).

`CCn1c(CNc2ccc(C(=N)N)cc2F)nc2cc(C(=O)N(CCC(=O)O)c3cc(F)cc(F)c3)ccc21` showed an inhibition on Prothrombin [1] of 91.2%.

`CCn1c(CNc2ccc(C(=N)N)cc2F)nc2cc(C(=O)N(CCC(=O)O)c3cc(C)ccn3)ccc21` yielded an inhibition against Prothrombin [1] of 92%. Further, the IC50 on Prothrombin [2] (read-out: IC50) was 3.69 nM; at Prothrombin [2] (read-out: pIC50 (converted)), 3.72 nM.

Consider `CCn1c(CNc2ccc(C(=N)N)cc2F)nc2cc(C(=O)N(CCC(=O)O)c3ccc(C)cc3)ccc21`, for which the inhibition at Prothrombin [1] was 88.2%.

With `CCn1c(CNc2ccc(C(=N)N)cc2F)nc2cc(C(=O)N(CCC(=O)O)c3c(C)cccc3C)ccc21`, the inhibition on Prothrombin [1] came out at 92.5%. In addition, the IC50 at Prothrombin [2] (read-out: IC50) is 1.81 nM; at Prothrombin [2] (read-out: pIC50 (converted)), 1.82 nM.

Regarding `CCn1c(CNc2ccc(C(=N)N)cc2F)nc2cc(C(=O)N(CCC(=O)O)c3ccc(F)cc3F)ccc21`, the inhibition on Prothrombin [1] came to 92.5%. Besides, the IC50 was 3.21 nM at Prothrombin [2] (read-out: IC50) and 3.24 nM at Prothrombin [2] (read-out: pIC50 (converted)). Further, the “inhibition (INH)” value in the assay with Rattus norvegicus is 76.23%.

The molecule `CCn1c(CNc2ccc(C(=N)N)cc2F)nc2cc(C(=O)N(CCC(=O)O)c3cccc(C)c3)ccc21` showed an inhibition against Prothrombin [1] of 92.8%. Further, the IC50 on Prothrombin [2] (read-out: IC50) was 5.44 nM; on Prothrombin [2] (read-out: pIC50 (converted)), 5.5 nM.

In the case of `CCn1c(CNc2ccc(C(=N)N)cc2F)nc2cc(C(=O)N(CCC(=O)O)c3ccc(F)c(C)c3)ccc21`, at Prothrombin [1], the inhibition amounted to 92.5%. The IC50 is 4.18 nM at Prothrombin [2] (read-out: IC50) and 4.17 nM at Prothrombin [2] (read-out: pIC50 (converted)).

Regarding `CCn1c(CNc2ccc(C(=N)N)cc2F)nc2cc(C(=O)N(CCC(=O)O)c3cc(C)cc(C)c3)ccc21`, the inhibition against Prothrombin [1] worked out at 89%.

Consider `CCn1c(CNc2ccc(C(=N)N)cc2F)nc2cc(C(=O)N(CCC(=O)O)c3cc(C)ccc3C)ccc21`, for which the inhibition on Prothrombin [1] is 93%. The figures for the IC50 at Prothrombin [2] (read-out: IC50) and on Prothrombin [2] (read-out: pIC50 (converted)) were 5.66 nM and 5.62 nM, respectively.

`CCn1c(CNc2ccc(C(=N)N)cc2F)nc2cc(C(=O)N(CCC(=O)O)c3ccc(C)cc3C)ccc21` yielded an inhibition at Prothrombin [1] of 91.9%. Further, the IC50 is 7.18 nM on Prothrombin [2] (read-out: IC50) and 7.24 nM at Prothrombin [2] (read-out: pIC50 (converted)).
